Here are results for 4 compounds from patent US20240140953A1, “INHIBITORS OF MENIN-MLL INTERACTION” (BIOMEA FUSION, INC., priority 2018, published 2024).

Like-named read-outs stand apart in the source and are kept apart here.

One assay relates to RS4-11 (MLL-AF4). The experiment in a line: LTP assay, CellTiterGlo, T4-T14 (Example 103), RS4-11. It counts as cell-based. The conditions noted are these: for IC50: Homo sapiens. The method, then: (§1) The day of the experiment (T0) all the cell line suspensions were counted by Cell Viability Analyser, Vi-CELL and properly diluted with fresh medium to obtain the cell density reported in the Test System paragraph.
(§2) Cells were tested after 4 passages after thawing.
(§3) 200 μL/well and 150 μL/well of cell suspension were added into the 0.4 μL/well and 0.3 μL/well compound plates, respectively. • Cell plate containing 200 μL/well suspension was incubated at 37° C. in a humidified incubator with 5% CO2. • From each well of the 150 μL/well cell assay plate, 100 μL were harvested and transferred into a 96-well Optiplate (Perkin Elmer, Cat. n. 6005290) and cell viability was measured as described in 4.3 paragraphs (T0).
(§4) After four days in culture (T4) 150 μL/well of fresh medium were added into a new 0.3 μL/well copy compound plate. • From each well of the 200 μL/well cell assay plate: • 100 μL were sampled for the cell viability measurement as described in 4.3 paragraphs (T4). • 50 μL were harvested and added to the 150 μL/well compound plate prepared as described in the first point to dilute 1:4 the cell suspension. • The cell assay plate diluted and containing 200 μL/well suspension were incubated at 37° C. in a humidified incubator with 5% Co2.
(§5) At T7-T11-T14 it was proceeded as described in T4, with the exception that no further cell dilution was carried out at T14.
(§6) Plates containing the samples to be tested were equilibrated at room temperature for approximately 30 min and then 30 μL/well of the Promega CellTiterGlo® reagent were added.
(§7) Contents will be mixed for 5 min on an orbital shaker to induce cell lysis and then incubated at room temperature for an additional 10 min to stabilize the luminescent signal.
(§8) Luminescence was read by using VictorV (Perkin Elmer) multilabel plate reader using the standard protocol for luminescence in 96 well plate.
(§9) Data were expressed as % of inhibition compared to the 0.2% DMSO negative control, and was calculated as follows: […]
(§10) CRCs were analysed by GraphPad and IC50 values were calculated by non-linear regression using 4 parameter-logistic equation. IC50 (μM) values were reported in the final data table.
(§11) The curve fittings were performed leaving free all the parameters. Any constrain were reported in the results table.
In general terms: In ATP-based viability assays light output follows the ATP content of the culture.

The next assay has as its system MV4-11 (MLL-AF4). The experiment in a line: LTP assay, CellTiterGlo, T4-T14 (Example 103), MV4-11. The conditions noted are these: for IC50: Homo sapiens. It counts as cell-based, human. The protocol: as §1, §2, §3, §4, §5, §6, §7, §8, §9, §10, §11
A further assay relates to MOLM-13 (MLL-AF9). The experiment in a line: LTP assay, CellTiterGlo, T4-T14 (Example 103), MOLM-13. It counts as cell-based, human. The conditions noted are these: for IC50: Homo sapiens. The protocol:
as §1, §2, §3, §4, §5, §6, §7, §8, §9, §10, §11

In a further assay the test system is HL-60. The experiment in a line: LTP assay, CellTiterGlo, T4-T14 (Example 103), HL-60. The class given is cell-based. The method, then:
as §1, §2, §3, §4, §5, §6, §7, §8, §9, §10, §11

The mark [1] stands for this setting: RS4-11, 96 h, RS4-11 (MLL-AF4), T4 (Day 4), read-out: IC50 T4 (Day 4).
Setting [2] is: RS4-11, RS4-11 (MLL-AF4), T7, read-out: IC50 T7.
Setting [3] is: RS4-11, RS4-11 (MLL-AF4), T11, read-out: IC50 T11.
The mark [4] stands for this setting: MV4-11, 96 h, MV4-11 (MLL-AF4), T4 (Day 4), read-out: IC50 T4 (Day 4).
Where [5] appears, read: MV4-11, MV4-11 (MLL-AF4), T7, read-out: IC50 T7.
Where [6] appears, read: MV4-11, MV4-11 (MLL-AF4), T11, read-out: IC50 T11.
Setting [7] is: MV4-11, MV4-11 (MLL-AF4), T14, read-out: IC50 T14.
Where [8] appears, read: MOLM-13, 96 h, MOLM-13 (MLL-AF9), T4 (Day 4), read-out: IC50 T4 (Day 4).
[9] abbreviates: MOLM-13, MOLM-13 (MLL-AF9), T7, read-out: IC50 T7.
Where [10] appears, read: MOLM-13, MOLM-13 (MLL-AF9), T11, read-out: IC50 T11.
The mark [11] stands for this setting: MOLM-13, MOLM-13 (MLL-AF9), T14, read-out: IC50 T14.
Setting [12] is: Homo sapiens, HL-60, 96 h, HL-60, T4 (Day 4), read-out: IC50 T4 (Day 4).
Where [13] appears, read: Homo sapiens, HL-60, HL-60, T7, read-out: IC50 T7.
Where [14] appears, read: Homo sapiens, HL-60, HL-60, T11, read-out: IC50 T11.
Where [15] appears, read: Homo sapiens, HL-60, HL-60, T14, read-out: IC50 T14.

`O=C(Nc1ccc(-c2nc3c(N4CCOCC4)nccc3[nH]2)cc1)Nc1cc(-c2cccnc2)n[nH]1` [Compound 19, 1-{4-[4-(morpholin-4-yl)-1H-imidazo[4,5-c]pyridin-2-yl]phenyl}-3-[3-(pyridin-3-yl)-1Hpyrazol-5-yl]urea]: the IC50 in the assay on RS4-11 (MLL-AF4) (setting [1]) was 1.62 µM; in the assay with RS4-11 (MLL-AF4) (setting [2]) it was 1.55 µM; in the assay on RS4-11 (MLL-AF4) (setting [3]), > 5 µM; in the assay on MV4-11 (MLL-AF4) (setting [4]) it was 1.29 µM; in the assay with MV4-11 (MLL-AF4) (setting [5]), 1.41 µM; in the assay with MV4-11 (MLL-AF4) (setting [6]) it was 0.05 µM. In addition, the 50% inhibitory concentration (IC50) in the assay on MV4-11 (MLL-AF4) (setting [7]) was found to be 0.08 µM; in the assay on MOLM-13 (MLL-AF9) (setting [8]), 0.83 µM; in the assay with MOLM-13 (MLL-AF9) (setting [9]) it was 0.74 µM; in the assay with MOLM-13 (MLL-AF9) (setting [10]) it was 0.78 µM; in the assay with MOLM-13 (MLL-AF9) (setting [11]), 1.32 µM; in the assay on HL-60 (HL-60, T7, read-out: IC50 T7) it was 0.871 µM. The IC50 with HL-60 (setting [12]) was 1.55 µM; with HL-60 (setting [13]), 0.87 µM; with HL-60 (setting [14]), 0.65 µM; in the assay with HL-60 (setting [15]) it was 0.59 µM. The “inhibition of cell viability (in words)” value is given as “fully inhibits the cell viability” in the assay with RS4-11 (MLL-AF4) (RS4;11, LTP assay); “fully inhibits the cell viability” with MV4-11 (MLL-AF4) (MV4-11, LTP assay); “fully inhibits the cell viability” with MOLM-13 (MLL-AF9) (MOLM-13, LTP assay); “fully inhibits the cell viability” in the assay on HL-60 (HL-60, LTP assay).

Regarding `Cc1cn(-c2nccc3[nH]c(-c4ccc(NC(=O)Cc5cc(-c6cccnc6)n[nH]5)cc4)nc23)cn1` [Compound 31, N-[4-[4-(4-methylimidazol-1-yl)-1H-imidazo[4,5-c]pyridin-2-yl]phenyl]-2-(3-pyridin-3-yl-1H-pyrazol-5-yl)acetamide], the concentration for half-maximal inhibition (IC50) is > 5 µM in the assay on RS4-11 (MLL-AF4) (setting [1]); 1.35 µM in the assay with RS4-11 (MLL-AF4) (setting [2]); > 5 µM in the assay with RS4-11 (MLL-AF4) (setting [3]); > 5 µM with MV4-11 (MLL-AF4) (setting [4]); > 5 µM with MV4-11 (MLL-AF4) (setting [5]); 2.63 µM in the assay on MV4-11 (MLL-AF4) (setting [6]). For the same compound, the IC50 is 2.19 µM in the assay with MV4-11 (MLL-AF4) (setting [7]); > 5 µM in the assay with MOLM-13 (MLL-AF9) (setting [8]); > 5 µM with MOLM-13 (MLL-AF9) (setting [9]); > 5 µM in the assay with MOLM-13 (MLL-AF9) (setting [10]); > 5 µM in the assay with MOLM-13 (MLL-AF9) (setting [11]); > 5 µM in the assay on HL-60 (setting [12]). Further, the IC50 in the assay with HL-60 (setting [13]), with HL-60 (setting [14]) and with HL-60 (setting [15]) was > 5 µM each time.

For `Cc1ccc(-c2cc(CC(=O)Nc3ccc(-c4nc5c(N6CCOCC6)nccc5[nH]4)cc3)[nH]n2)cn1` [Compound 32], the half-maximal inhibitory concentration (IC50) in the assay with RS4-11 (MLL-AF4) (setting [1]) was > 5 µM; with RS4-11 (MLL-AF4) (setting [2]) it was 2.75 µM; in the assay with RS4-11 (MLL-AF4) (setting [3]), > 5 µM; in the assay on MV4-11 (MLL-AF4) (setting [4]) it was > 5 µM; in the assay on MV4-11 (MLL-AF4) (setting [5]), 4.91 µM; with MV4-11 (MLL-AF4) (setting [6]), 3.09 µM. The IC50 with MV4-11 (MLL-AF4) (setting [7]) was 2.69 µM; with MOLM-13 (MLL-AF9) (setting [8]), > 5 µM; in the assay on MOLM-13 (MLL-AF9) (setting [9]), > 5 µM; in the assay with MOLM-13 (MLL-AF9) (setting [10]), > 5 µM; in the assay on MOLM-13 (MLL-AF9) (setting [11]), > 5 µM; in the assay with HL-60 (setting [12]), > 5 µM. Moreover, the IC50 with HL-60 (setting [13]), with HL-60 (setting [14]) and in the assay with HL-60 (setting [15]) was > 5 µM throughout.

Regarding `Cc1nccc2[nH]c(-c3ccc(NC(=O)Cc4cc(-c5cccnc5)n[nH]4)cc3)nc12` [Compound 33], the concentration for half-maximal inhibition (IC50) in the assay with RS4-11 (MLL-AF4) (setting [1]) was > 5 µM; in the assay on RS4-11 (MLL-AF4) (setting [2]), > 5 µM; in the assay on RS4-11 (MLL-AF4) (setting [3]), > 5 µM; with MV4-11 (MLL-AF4) (setting [4]) it was > 5 µM; in the assay on MV4-11 (MLL-AF4) (setting [5]), > 5 µM; with MV4-11 (MLL-AF4) (setting [6]) it was 3.31 µM. For the same compound, the half-inhibitory concentration (IC50) in the assay with MV4-11 (MLL-AF4) (setting [7]) is 2.34 µM; in the assay with MOLM-13 (MLL-AF9) (setting [8]), > 5 µM; with MOLM-13 (MLL-AF9) (setting [9]), > 5 µM; in the assay on MOLM-13 (MLL-AF9) (setting [10]) it was > 5 µM; with MOLM-13 (MLL-AF9) (setting [11]), > 5 µM; with HL-60 (setting [12]), > 5 µM. Also, the IC50 in the assay with HL-60 (setting [13]), in the assay on HL-60 (setting [14]) and in the assay with HL-60 (setting [15]) was > 5 µM throughout.

Broadly, the IC50 is the midpoint of a concentration-inhibition curve.
